Among the test systems are HT29 colon; OVCAR-8 ovarian; NCI-H522 lung; MDA-MB-435; T-47D breast; SK-OV-3 ovarian; NCI-H226 lung; CAKI-1 renal; DU-145 prostate; 786-0 renal; SK-MEL-28 melanoma; NCI-H460 lung; SN12C renal; BT-549 breast; MDA-MB-231 breast; ACHN renal; UACC-257 melanoma; A498 renal; HCT-15 colon.
What all share (assay): NCI-60 cell line screen, 48 h

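Five concentrations, 48 hours, 96-well plates. TGI: concentration producing complete growth inhibition.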

For `CC(=O)N1c2ccccc2[C@H]2CCc3c([nH]c4ccccc34)[C@H]21`, the TGI is 44.7 µM in the assay on HT29 colon; over 100 µM with OVCAR-8 ovarian; 51.3 µM in the assay with NCI-H522 lung; 42.5 µM with MDA-MB-435; 96.9 µM in the assay with T-47D breast; over 100 µM in the assay on SK-OV-3 ovarian. For the same compound, the TGI with NCI-H226 lung stood at 36.7 µM; in the assay with CAKI-1 renal it was 64.4 µM; in the assay on DU-145 prostate, 61.9 µM; with 786-0 renal, 32.2 µM; in the assay on SK-MEL-28 melanoma, 31.1 µM; in the assay with NCI-H460 lung, 23.3 µM. Also, the TGI with SN12C renal is 27.5 µM; in the assay with BT-549 breast it was 30 µM; in the assay on MDA-MB-231 breast it was 31.5 µM; in the assay on ACHN renal, over 100 µM; in the assay with UACC-257 melanoma, over 100 µM; in the assay with A498 renal, 36.2 µM. Besides, the TGI in the assay with HCT-15 colon is 31.6 µM.
Turning to `CCOP(=O)(/C=C\n1ccc(=O)[nH]c1=O)OCC`, the TGI in the assay on HT29 colon, with OVCAR-8 ovarian, with NCI-H522 lung, with MDA-MB-435, in the assay with T-47D breast and with SK-OV-3 ovarian was over 100 µM throughout. For the same compound, the TGI in the assay on NCI-H226 lung, with CAKI-1 renal, in the assay on DU-145 prostate, in the assay with 786-0 renal, in the assay on SK-MEL-28 melanoma and in the assay with SN12C renal was over 100 µM in each case. The TGI in the assay with BT-549 breast, in the assay with MDA-MB-231 breast, in the assay on ACHN renal, in the assay on UACC-257 melanoma, with A498 renal and in the assay on HCT-15 colon was over 100 µM in each case.
`CC(=O)O[C@H]1C[C@@H](OC(C)=O)[C@@](C)(O)[C@@H]2[C@@H](OC(C)=O)[C@@]3(O)[C@H](/C=C(/CCl)[C@H]4O[C@H]4[C@@H](OC(C)=O)[C@@]12C)OC(=O)[C@@H]3C`: the TGI in the assay on HT29 colon, in the assay with OVCAR-8 ovarian, in the assay with NCI-H522 lung, in the assay with MDA-MB-435, with T-47D breast and with SK-OV-3 ovarian was over 25 µM in each case. The TGI in the assay with NCI-H226 lung, with CAKI-1 renal, with DU-145 prostate, in the assay with 786-0 renal, in the assay with SK-MEL-28 melanoma and with NCI-H460 lung was over 25 µM each time. Besides, the TGI with SN12C renal, in the assay with BT-549 breast, with MDA-MB-231 breast, in the assay on ACHN renal, with UACC-257 melanoma and in the assay on A498 renal was over 25 µM in each case. This compound showed a TGI with HCT-15 colon of over 25 µM.
`Brc1ccc(-c2nc(-c3ccc(Br)cc3)n(-c3ccccc3)n2)cc1`: the TGI in the assay on HT29 colon, in the assay on OVCAR-8 ovarian, in the assay on NCI-H522 lung, in the assay with MDA-MB-435, in the assay on T-47D breast and with SK-OV-3 ovarian was over 100 µM each time. In addition, the TGI in the assay with NCI-H226 lung, in the assay with CAKI-1 renal, in the assay on DU-145 prostate, in the assay with 786-0 renal, in the assay on SK-MEL-28 melanoma and in the assay with NCI-H460 lung was over 100 µM each time. For the same compound, the TGI in the assay with SN12C renal, in the assay on BT-549 breast, in the assay on MDA-MB-231 breast, in the assay on ACHN renal, in the assay with UACC-257 melanoma and with A498 renal was over 100 µM in each case. In the assay on HCT-15 colon, this compound came in with a TGI of over 100 µM.
For `CO[C@]12C[C@@H](CNC(=O)c3cc(Br)c[nH]3)O[C@H]1NC(=O)N2`, the TGI with HT29 colon, in the assay on OVCAR-8 ovarian, in the assay on NCI-H522 lung, with MDA-MB-435, with T-47D breast and in the assay with SK-OV-3 ovarian was over 100 µM throughout. Moreover, the TGI in the assay with NCI-H226 lung, in the assay with CAKI-1 renal, with DU-145 prostate, in the assay with 786-0 renal, with SK-MEL-28 melanoma and in the assay with NCI-H460 lung was over 100 µM throughout. For the same compound, the TGI in the assay on SN12C renal, with BT-549 breast, in the assay on MDA-MB-231 breast, with ACHN renal, with UACC-257 melanoma and in the assay on A498 renal was over 100 µM in each case. Also, the TGI in the assay with HCT-15 colon is over 100 µM.
`CC1=NNC(=O)[C@H]2[C@H]1CCC1[C@@H]2CC[C@]2(C)[C@@H](O)CC[C@@H]12` (stereo partly drawn): the TGI with HT29 colon, with OVCAR-8 ovarian, in the assay with NCI-H522 lung, with MDA-MB-435, in the assay with T-47D breast and with SK-OV-3 ovarian was over 100 µM each time. For the same compound, the TGI with NCI-H226 lung, in the assay on CAKI-1 renal, with DU-145 prostate, with 786-0 renal, in the assay with SK-MEL-28 melanoma and in the assay with NCI-H460 lung was over 100 µM in each case. The TGI with SN12C renal, with BT-549 breast, in the assay with MDA-MB-231 breast, in the assay with ACHN renal, in the assay with UACC-257 melanoma and with A498 renal was over 100 µM throughout. In the assay with HCT-15 colon, this compound showed a TGI of over 100 µM.

The values are drawn from PubChem BioAssay (NCI).
